According to ChEMBL document CHEMBL1125705, “Imidazo[4,5-b]quinoxaline cyanines as neurokinin antagonists” (J Med Chem, 1991):
pIC50: −log10 of the molar value.

Legend:
Substance-P receptor = Substance-P receptor (Rattus norvegicus, UniProt P14600); assay: Binding affinity for tachykinin receptor 1 from rat forebrain tissue, [125I]-BH-SP as radioligand
Substance-K receptor = target: T1, Substance-K receptor (Rattus norvegicus, UniProt P16610); assay: Binding affinity of compound was evaluated towards tachykinin receptor 2 by using radioligand ([125I]-NKA in rat duodenum
T1 sequence (P16610 whole entry): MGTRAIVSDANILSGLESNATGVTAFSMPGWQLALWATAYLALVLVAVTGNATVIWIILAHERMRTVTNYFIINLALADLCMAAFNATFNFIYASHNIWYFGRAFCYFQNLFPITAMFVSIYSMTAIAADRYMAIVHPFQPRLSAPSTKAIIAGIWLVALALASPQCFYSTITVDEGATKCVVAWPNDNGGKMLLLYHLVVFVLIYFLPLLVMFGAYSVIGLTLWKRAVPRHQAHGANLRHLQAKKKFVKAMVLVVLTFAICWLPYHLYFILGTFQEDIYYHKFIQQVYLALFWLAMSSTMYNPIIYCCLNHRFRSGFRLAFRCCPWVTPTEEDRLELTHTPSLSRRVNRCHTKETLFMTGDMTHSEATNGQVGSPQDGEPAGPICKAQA

Neuromedin-K receptor = target: T2, Neuromedin-K receptor (Rattus norvegicus, UniProt P16177); assay: Binding affinity of compound was evaluated towards tachykinin receptor 3 by using radioligand [[…]]eledoisin in rat cortex
T2 sequence (P16177 whole entry): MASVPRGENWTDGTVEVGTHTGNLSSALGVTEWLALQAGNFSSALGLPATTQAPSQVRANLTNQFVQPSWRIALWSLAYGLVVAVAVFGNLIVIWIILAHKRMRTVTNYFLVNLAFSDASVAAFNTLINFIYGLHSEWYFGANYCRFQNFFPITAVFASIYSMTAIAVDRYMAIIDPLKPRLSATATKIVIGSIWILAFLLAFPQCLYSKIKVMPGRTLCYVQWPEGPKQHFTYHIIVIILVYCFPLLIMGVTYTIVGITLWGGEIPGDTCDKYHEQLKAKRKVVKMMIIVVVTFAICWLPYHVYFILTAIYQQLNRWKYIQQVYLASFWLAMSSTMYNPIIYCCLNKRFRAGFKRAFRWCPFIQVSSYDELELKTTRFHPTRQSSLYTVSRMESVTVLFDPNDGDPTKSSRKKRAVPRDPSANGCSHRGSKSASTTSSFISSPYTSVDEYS

Chain of Substance-P receptor (P14600 whole entry): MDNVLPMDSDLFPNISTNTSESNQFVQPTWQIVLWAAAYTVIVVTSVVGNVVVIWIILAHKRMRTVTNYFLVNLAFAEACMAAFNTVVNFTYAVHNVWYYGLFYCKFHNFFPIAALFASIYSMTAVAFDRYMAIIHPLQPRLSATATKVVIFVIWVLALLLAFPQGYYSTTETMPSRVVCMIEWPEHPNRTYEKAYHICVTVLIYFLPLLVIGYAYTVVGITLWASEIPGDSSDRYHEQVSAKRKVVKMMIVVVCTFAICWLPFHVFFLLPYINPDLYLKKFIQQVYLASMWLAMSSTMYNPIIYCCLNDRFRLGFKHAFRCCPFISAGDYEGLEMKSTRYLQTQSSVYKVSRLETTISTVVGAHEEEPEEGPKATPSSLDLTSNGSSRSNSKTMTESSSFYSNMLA

Compound | pIC50 (Substance-P receptor) | pIC50 (Substance-K receptor) | pIC50 (Neuromedin-K receptor)
CCn1c(/C=C/C=C2/N(C)c3ccccc3C2(C)C)[n+](CC)c2nc3cc(Cl)c(Cl)cc3nc21 | 5.96 |  | 
CCn1c(/C=C/C=C2/N(CC(=O)N(C)C)c3ccccc3C2(C)C)[n+](CC)c2nc3ccccc3nc21 | 5.59 |  | 
CCn1c(/C=C/C=C2/N(CCO)c3ccccc3C2(C)C)[n+](CC)c2nc3ccccc3nc21 | 6.00 |  | 
CCn1c(/C=C/C=C2/N(C)c3ccccc3C2(C)C)[n+](CCCN(C)C)c2nc3ccccc3nc21 | 5.89 |  | 
CCn1c(/C=C/C=C2/N(C)c3ccccc3C2(C)C)[n+](CC(N)=O)c2nc3ccccc3nc21 | 5.70 |  | 
CCn1c(/C=C/C=C2/N(C)c3ccccc3C2(C)C)[n+](CCCC(=O)O)c2nc3ccccc3nc21 | 5.85 |  | 
CCn1c(/C=C/C=C2\N(C)c3ccccc3C2(C)C)[n+](CC)c2nc3ccccc3nc21 |  | 5.77 | 5.48
CCn1c(/C=C/C=C/N2CCCC2)[n+](CC)c2nc3ccccc3nc21 | < 5.00 |  | 

More lines, now with the values ahead:

pIC50 (Substance-P receptor) | pIC50 (Substance-K receptor) | pIC50 (Neuromedin-K receptor) | Compound
6.15 |  |  | CCn1c(/C=C/C=C2\Sc3ccccc3N2C)[n+](CC)c2nc3ccccc3nc21
6.41 |  |  | CCN1/C(=C/C=C/c2n(CC)c3nc4ccccc4nc3[n+]2CC)C(C)(C)c2ccccc21
6.07 |  |  | CCn1c(/C=C/C=C2\C3C=CCc4cccc(c43)N2C)[n+](CC)c2nc3ccccc3nc21 (stereo not given)
6.46 |  |  | CCn1c(/C=C/C=C2/N(C)c3ccccc3C2(C)C)[n+](CCCO)c2nc3ccccc3nc21
6.07 |  |  | CCOC(=O)CCC[n+]1c(/C=C/C=C2/N(C)c3ccccc3C2(C)C)n(CC)c2nc3ccccc3nc21
6.39 |  |  | CCn1c(/C=C/C=C2/N(C)c3ccccc3C2(C)C)[n+](CCCOC(C)=O)c2nc3ccccc3nc21
